# Source: patent publication US9273319B2, “Molecular switches and methods for making and using the same” (The Johns Hopkins University, priority 2002, dated 2016)
# Tested on: DH5α/pDIMC8-Mal
# Experiment: MIC for ampicillin on LB plates
# Format: cell-based, E. coli
# Settings: Escherichia coli
# Source text: The E. coli […] was cloned into plasmid pDIMC8 (Ostermeier and Benkovic, 1999, Nat Biotechnol. 17:1205-1209) under control of the IPTG inducible lac promoter to create plasmid […].
row,Compound,MIC [µg/mL]
1,CC1(C)S[C@@H]2[C@H](NC(=O)[C@H](N)c3ccccc3)C(=O)N2[C@H]1C(=O)O [ampicillin],30 to 35

# Molecular target: T1, T164-165 β-lactamase: maltose binding protein (MBP) fusion (Escherichia coli, UniProt P0AEX9, INS191[…])
# T1 construct: made in house; host or cells: E. coli (library selected in malE auxotroph PM9F'; derivative of plasmid pDIMC8-Mal, IPTG-inducible lac promoter)
# Experiment: Effect of sugars on the T164-165 fusion's hydrolysis of nitrocefin (FIG. 8)
# Format: biochemical, E. coli
# Settings: 150 μM nitrocefin, 5 mM of the indicated sugar
# Procedure: The fusion comprises an insertion of β-lactamase amino acid sequences into an MBP acceptor polypeptide with a tandem duplication of amino acids 164-165 of MBP at the insertion site. The velocity of nitrocefin hydrolysis with 150 μM nitrocefin and 5 mM of the indicated sugars was compared to the velocity without any sugar. […] All sugars known to bind to wildtype MBP and induce a conformational change (maltose, maltotriose and maltohexose) increase the rate of hydrolysis by approximately 40%.
# Although MBP can bind many other linear maltodextrins, cyclodextrins and reduced or oxidized variants thereof, only those ligands which, induce a conformational change in MBP (Hall, et al. (1997) J. Biol. Chem. 272(28): 17605-17609; Ball, et al. (1997) J. Biol. Chem. 272(28): 17610-17614) behaved as a switch (see, FIG. 8).
row,Compound,increase of rate of nitrocefin hydrolysis compared to velocity without any sugar
1,OC[C@H]1O[C@H](O[C@H]2[C@H](O)[C@@H](O)C(O)O[C@@H]2CO)[C@H](O)[C@@H](O)[C@@H]1O (mixture of isomers) [maltose],approximately 40%
2,OC[C@@H](O)[C@@H](O[C@H]1O[C@H](CO)[C@@H](O)[C@H](O)[C@H]1O)[C@H](O)[C@@H](O)CO [maltitol],did not have a significant effect
3,OC[C@H]1O[C@H](O[C@H]2[C@H](O)[C@@H](O)[C@@H](O[C@H]3[C@H](O)[C@@H](O)[C@@H](O[C@H]4[C@H](O)[C@@H](O)[C@@H](O[C@H]5[C@H](O)[C@@H](O)[C@@H](O[C@H]6[C@H](O)[C@@H](O)C(O)O[C@@H]6CO)O[C@@H]5CO)O[C@@H]4CO)O[C@@H]3CO)O[C@@H]2CO)[C@H](O)[C@@H](O)[C@@H]1O (stereo partly shown) [maltohexose],approximately 40%
4,OC[C@H]1O[C@@](CO)(O[C@H]2O[C@H](CO)[C@@H](O)[C@H](O)[C@H]2O)[C@@H](O)[C@@H]1O [sucrose],did not have a significant effect
5,OC[C@H]1O[C@@H]2O[C@H]3[C@H](O)[C@@H](O)[C@@H](O[C@H]4[C@H](O)[C@@H](O)[C@@H](O[C@H]5[C@H](O)[C@@H](O)[C@@H](O[C@H]6[C@H](O)[C@@H](O)[C@@H](O[C@H]7[C@H](O)[C@@H](O)[C@@H](O[C@H]8[C@H](O)[C@@H](O)[C@@H](O[C@H]1[C@H](O)[C@H]2O)O[C@@H]8CO)O[C@@H]7CO)O[C@@H]6CO)O[C@@H]5CO)O[C@@H]4CO)O[C@@H]3CO [β-cyclodextrin],did not have a significant effect
6,maltotriose,approximately 40%
